Measured values reported in US20130072474A1, “TREATMENT OF DEMENTIA OF ALZHEIMER'S TYPE WITH MASITINIB” (AB SCIENCE, priority 2010, published 2013).
Entries after “also recorded” stand apart in the source; their conditions may differ.

Experiments:
[1] = tested on: patients suffering from mild to moderate dementia of Alzheimer's type; experiment: Phase 2 study, ADCS-ADL (daily living activities); type: in vivo, human; settings: ITT population
From the text: (§1) A multicenter, randomized, double-blind, placebo-controlled, parallel-group phase 2 study evaluating the activity of masitinib given orally for 24 weeks has been performed in patients suffering from mild to moderate dementia of Alzheimer's type (protocol period completed, extension ongoing).
Patients: Patients enrolled in this study had dementia of Alzheimer's type (according to DSM IV criteria), probable Alzheimer's disease according to NINCDS-ADRDA criteria, MMSE≧12 and ≦26, and CDR of 1 or 2. […] Exclusion criteria included inadequate organ function (defined via blood test levels), dementia due to any other causes, uncontrolled depression, psychosis, delusions or delirium.
(§2) Treatment: In addition to a stable dose of acetylcholinesterase inhibitors and/or memantine, patients received masitinib or placebo, supplied as 100 and 200 mg tablets, per os for 24 weeks. Patients received masitinib or placebo initially at a daily total dose of 3 mg/kg or 6 mg/kg, administered twice daily with meals. Dose could be increased or decreased by 1.5 mg/kg/day depending on efficacy and toxicity assessments. Five patients were allocated to each masitinib dose for every three placebo patients. Treatment with any registered or putative cognitive enhancer or disease modifier (other than donepezil, galantamine, rivastigmine or memantine), or any investigational therapies was not allowed.
ADCS-ADL: Alzheimer's Disease Cooperative Study-Activities of Daily Living, which measures a wide spectrum of dementia severity. Patients/caregivers are asked 23 questions about their daily activities. The maximum possible score is 78, with a higher score indicating better function
Statistical analyses: Efficacy was analyzed in the intent-to-treat (ITT) (all randomized patients, according to group of randomization) and per protocol (PP) (all patients without a major protocol deviation) populations. […] Efficacy criteria were analyzed using descriptive statistics, numbers and rates for categorical and discontinuous variables, parametric and non-parametric distribution elements for continuous variables.
Results are presented for the ITT population in the OC dataset (with LOCF for Centre #21 at Week 24).

Src = Src (Homo sapiens, UniProt P12931); settings: at therapeutic doses of masitinib; cited from earlier work
[2] = tested on: patients suffering from mild to moderate dementia of Alzheimer's type; experiment: Phase 2 study, safety (adverse events, NCI CTCAE v3.0); type: in vivo, human; settings: for At least one AE, All, patients: regardless of causality
From the text: as §1
Patients: Patients enrolled in this study had dementia of Alzheimer's type (according to DSM IV criteria), probable Alzheimer's disease according to NINCDS-ADRDA criteria, MMSE≧12 and ≦26, and CDR of 1 or 2. Patients had been receiving a stable dose of acetylcholinesterase inhibitors for a minimum of 6 months and/or memantine for a minimum of 3 months. Exclusion criteria included inadequate organ function (defined via blood test levels), dementia due to any other causes, uncontrolled depression, psychosis, delusions or delirium.
as §2
Safety was monitored throughout the study, and graded according to the NCI CTCAE v3.0 in all patients receiving at least one dose of masitinib. Safety assessment was based upon the frequency and severity of adverse events (AE), regardless of causality.
Safety was assessed in the safety population (all patients receiving at least one drug administration), with descriptive statistics.

[3] = W 12, Observed Cases, listed as AB1010
[4] = W 24 LOCF center 21, Observed Cases
[5] = W 24 LOCF center 21, observed cases, listed as AB1010

Src, sequence (P12931 whole entry): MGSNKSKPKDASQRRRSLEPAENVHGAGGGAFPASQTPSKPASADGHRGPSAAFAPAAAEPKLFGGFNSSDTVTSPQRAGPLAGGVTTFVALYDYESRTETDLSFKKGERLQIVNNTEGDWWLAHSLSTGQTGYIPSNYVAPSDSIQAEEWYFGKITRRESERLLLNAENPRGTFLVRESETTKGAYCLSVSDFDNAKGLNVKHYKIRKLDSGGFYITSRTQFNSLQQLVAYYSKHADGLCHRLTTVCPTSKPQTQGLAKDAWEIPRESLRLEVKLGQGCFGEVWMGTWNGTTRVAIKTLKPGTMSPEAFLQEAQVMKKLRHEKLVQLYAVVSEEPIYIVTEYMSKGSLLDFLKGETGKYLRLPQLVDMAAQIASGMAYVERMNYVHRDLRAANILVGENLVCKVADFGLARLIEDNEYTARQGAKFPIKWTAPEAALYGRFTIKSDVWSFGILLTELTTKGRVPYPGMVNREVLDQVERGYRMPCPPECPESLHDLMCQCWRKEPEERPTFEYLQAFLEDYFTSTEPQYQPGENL

Cc1ccc(NC(=O)c2ccc(CN3CCN(C)CC3)cc2)cc1Nc1nc(-c2cccnc2)cs1 [masitinib, 4-(4-methylpiperazin-1-ylmethyl)-N-[4-methyl-3-(4-pyridin-3ylthiazol-2-ylamino)phenyl]benzamide]
ADCS-ADL No change, rate of patients ([1]; W 4, Observed Cases): 5 (22.7%)
ADCS-ADL Response (Increase >=3), rate of patients ([1]; W 4, Observed Cases): 10 (45.5%)
ADCS-ADL Worsening (Decrease <0), rate of patients ([1]; W 4, Observed Cases): 7 (31.8%)
ADCS-ADL absolute change relative to baseline, Mean ± Std ([1]; W 4, Observed Cases): 1.8 ± 6.1
ADCS-ADL absolute change relative to baseline, Median ([1]; W 4, Observed Cases): 1.5
ADCS-ADL No change, rate of patients ([1]; W 8, Observed Cases): 5 (27.8%)
ADCS-ADL Response (Increase >=3), rate of patients ([1]; W 8, Observed Cases): 7 (38.9%)
ADCS-ADL Worsening (Decrease <0), rate of patients ([1]; W 8, Observed Cases): 6 (33.3%)
ADCS-ADL absolute change relative to baseline, Mean ± Std ([1]; W 8, Observed Cases): 0.3 ± 7.0
ADCS-ADL absolute change relative to baseline, Median ([1]; W 8, Observed Cases): 1.0
ADCS-ADL No change, rate of patients ([1]; W 12, Observed Cases): 3 (18.8%)
ADCS-ADL Response (Increase >=3), rate of patients ([1]; W 12, Observed Cases): 8 (50.0%)
ADCS-ADL Worsening (Decrease <0), rate of patients ([1]; W 12, Observed Cases): 31%
ADCS-ADL absolute change relative to baseline, Mean ± Std ([1]; W 12, Observed Cases): 6.9±10.9
ADCS-ADL absolute change relative to baseline, Median ([1]; W 12, Observed Cases): 3.0
ADCS-ADL Worsening (Decrease <0), rate of patients [1, 3]: 5 (31.3%)
ADCS-ADL absolute change relative to baseline, Mean ± Std [1, 3]: 6.9 ± 10.9
ADCS-ADL No change, rate of patients ([1]; W 24, Observed Cases): 0 (0.0%)
ADCS-ADL Response (Increase >=3), rate of patients ([1]; W 24, Observed Cases): 5 (62.5%)
ADCS-ADL Worsening (Decrease <0), rate of patients ([1]; W 24, Observed Cases): 3 (37.5%)
ADCS-ADL absolute change relative to baseline, Mean ± Std ([1]; W 24, Observed Cases): −1.4 ± 15.3
ADCS-ADL absolute change relative to baseline, Median ([1]; W 24, Observed Cases): 4.0
ADCS-ADL No change, rate of patients [1, 4]: 2 (13.3%)
ADCS-ADL Response (Increase >=3), rate of patients [1, 4]: 60%
ADCS-ADL Worsening (Decrease <0), rate of patients [1, 4]: 27%
ADCS-ADL absolute change relative to baseline, Mean ± Std [1, 4]: 5.5±15.8
ADCS-ADL absolute change relative to baseline, Median [1, 4]: 4.0
ADCS-ADL Response (Increase >=3), rate of patients [1, 5]: 9 (60.0%)
ADCS-ADL Worsening (Decrease <0), rate of patients [1, 5]: 4 (26.7%)
ADCS-ADL absolute change relative to baseline, Mean ± Std [1, 5]: 5.5 ± 15.8
inhibition of Src (Src): not inhibited at therapeutic doses
dose effect on frequency of overall and individual AEs ([2]; 3 versus 6 mg/kg/day arms): no dose effect in terms of toxicity
patients who experienced edema ([2]; 26 masitinib-treated patients): 27%
patients who experienced nausea/vomiting ([2]; 26 masitinib-treated patients): 27%
patients who experienced rash ([2]; 26 masitinib-treated patients): 15%
patients with at least one AE considered related ([2]; 26 masitinib-treated patients): 58%
patients with at least one related serious adverse event ([2]; 26 masitinib-treated patients): 19%
patients with related AEs leading to treatment discontinuation ([2]; 26 masitinib-treated patients): 35%
Anemia, All, patients ([2]; N = 26): (50.0%)
Anemia, Moderate, patients ([2]; N = 26): (7.7%)
Anorexia, All, patients ([2]; N = 26): (15.4%)
Anorexia, Moderate, patients ([2]; N = 26): (7.7%)
Anorexia, Severe, patients ([2]; N = 26): (7.7%)
Asthenia, All, patients ([2]; N = 26): (11.5%)
Asthenia, Moderate, patients ([2]; N = 26): (3.8%)
Asthenia, Severe, patients ([2]; N = 26): (3.8%)
At least one AE, Moderate, patients ([2]; N = 26): (42.3%)
At least one AE, Severe, patients ([2]; N = 26): 15%
Depression, All, patients ([2]; N = 26): (7.7%)
Diarrhea, All, patients ([2]; N = 26): 23%
Diarrhea, Moderate, patients ([2]; N = 26): (11.5%)
Eyelid edema, All, patients ([2]; N = 26): (15.4%)
Eyelid edema, Moderate, patients ([2]; N = 26): (7.7%)
Leukopenia, All, patients ([2]; N = 26): (26.9%)
Leukopenia, Moderate, patients ([2]; N = 26): (3.8%)
Nausea, All, patients ([2]; N = 26): (15.4%)
Nausea, Moderate, patients ([2]; N = 26): (3.8%)
Nausea, Severe, patients ([2]; N = 26): (3.8%)
Neutropenia, All, patients ([2]; N = 26): (42.3%)
Peripheral edema, All, patients ([2]; N = 26): (19.2%)
Peripheral edema, Moderate, patients ([2]; N = 26): (11.5%)
Thrombocytopenia, All, patients ([2]; N = 26): (15.4%)
Vomiting, All, patients ([2]; N = 26): (11.5%)
Vomiting, Moderate, patients ([2]; N = 26): (7.7%)
Weight Decreased, All, patients ([2]; N = 26): (7.7%)
Weight Decreased, Moderate, patients ([2]; N = 26): (7.7%)
At least one AE, Severe, patients ([2]; N = 26, listed as Masitinib): (15.4%)
Diarrhea, All, patients ([2]; N = 26, listed as Masitinib): (23.1%)
At least one AE, All, patients ([2]; N = 26): 65%
At least one AE, All, patients ([2]; N = 26, listed as Masitinib): (65.4%)
patients in the masitinib arm who withdrew due to related AEs ([2]; before completion of the 24-week treatment period, of 17 masitinib patients who withdrew): 41%
patients with dose reductions due to AEs (all considered related) ([2]; masitinib-treated patients): four
patients with severe transaminase elevation ([2]; masitinib-treated patients): One
deaths ([2]; phase 2 study): No deaths were reported; also recorded: No patients died
